Where no end group is shown, it is not given here.
Experiments:
[1] = system: Escherichia coli (ATCC 25922); assay: Antimicrobial assay, macrodilution broth; format: cell-based; conditions: Escherichia coli (25922); for 50% Minimal inhibitory concentration: 50% inhibition of growth; for 100% Minimal inhibitory concentration: complete inhibition of growth
Description: (§1) The antimicrobial activities of magainin analogues were assayed by macrodilution broth procedure of Jones et al (Jones, R. N., Barry, A. L., Gaven, T. L. and Washington, J. A. in "Manual of Clinical Microbiology", Lennette, D. H. Balows, A., Hausler, W. J. and Shadomy, H. J., eds; fourth edition, American Society for Microbiology, Washington, D.C., 1985) with modifications. Different concentrations of peptides were added to 2 ml of trypticase soy broth (BBL) containing the inocula of the test organisms adjusted to 10^5 and 10^6 CFU/ml. Microbial growth was determined by the increase in OD600, after incubation of the tubes at 35° C. for 6-9 h depending on the growth rate. […] The 50% minimal inhibitory concentration was determined from the plots of growth vs concentration of peptide.

[2] = system: Klebsiella pneumoniae (ATCC 13883); assay: Antimicrobial assay, macrodilution broth; format: cell-based; conditions: Klebsiella pneumoniae (13883); for 50% Minimal inhibitory concentration: 50% inhibition of growth; for 100% Minimal inhibitory concentration: complete inhibition of growth
Description: as §1

[3] = system: Pseudomonas aeruginosa (ATCC 27853); assay: Antimicrobial assay, macrodilution broth; format: cell-based; conditions: Pseudomonas aeruginosa (27853); for 50% Minimal inhibitory concentration: 50% inhibition of growth; for 100% Minimal inhibitory concentration: complete inhibition of growth
Description: as §1

[4] = system: Staphylococcus aureus (ATCC 25923) beta-lactamase(-); assay: Antimicrobial assay, macrodilution broth; format: cell-based; conditions: Staphylococcus aureus (25923) beta-lactamase(-); for 50% Minimal inhibitory concentration: 50% inhibition of growth; for 100% Minimal inhibitory concentration: complete inhibition of growth
Description: as §1

[5] = system: Staphylococcus aureus (ATCC 29213) beta-lactamase(+); assay: Antimicrobial assay, macrodilution broth; format: cell-based; conditions: Staphylococcus aureus (29213) beta-lactamase(+); for 50% Minimal inhibitory concentration: 50% inhibition of growth; for 100% Minimal inhibitory concentration: complete inhibition of growth
Description: as §1

[6] = system: Streptococcus agalactiae (ATCC 12386); assay: Antimicrobial assay, macrodilution broth; format: cell-based; conditions: Streptococcus agalactiae (12386); for 50% Minimal inhibitory concentration: 50% inhibition of growth; for 100% Minimal inhibitory concentration: complete inhibition of growth
Description: as §1

[7] = system: Streptococcus faecalis (ATCC 29212); assay: Antimicrobial assay, macrodilution broth; format: cell-based; conditions: Streptococcus faecalis (29212); for 50% Minimal inhibitory concentration: 50% inhibition of growth; for 100% Minimal inhibitory concentration: complete inhibition of growth
Description: as §1

[8] = system: Gram-positive and Gram-negative bacteria; assay: Antimicrobial assay, overall statements; format: cell-based
Description: as §1

[9] = Circular dichroic measurements; format: physicochemical
human erythrocyte = assay: Erythrocyte hemolysis assay; format: cell-based
Description: To 75×12 mm borosilicate test tubes containing a predetermined amount of dried peptide in duplicate, 2.5 ml of diluted human erythrocyte suspension (10%, v/v) in isotonic phosphate-buffered saline was added. After gentle mixing and incubation for 10 min at 37° C., tubes were centrifuged at 3000×g for 10 min. The supernatant was separated from cells and debris, diluted if necessary, and OD350 measured. 100% hemolysis was obtained by using 0.1% Triton X-100.

[10] = 40% CF3CH2OH (trifluoroethanol)

Substance: Ac-GIGKFLHAAKKFAKAFVAEIMNS-NH2 [analogue C]
- 50% Minimal inhibitory concentration [1]: 10 mg/L
- 100% Minimal inhibitory concentration [1]: 25 mg/L
- 50% Minimal inhibitory concentration [2]: 60 mg/L
- 100% Minimal inhibitory concentration [2]: 100 mg/L
- 50% Minimal inhibitory concentration [3]: > 100 mg/L
- 100% Minimal inhibitory concentration [3]: > 100 mg/L
- 50% Minimal inhibitory concentration [4]: 10 mg/L
- 100% Minimal inhibitory concentration [4]: 25 mg/L
- 50% Minimal inhibitory concentration [5]: 7.5 mg/L
- 100% Minimal inhibitory concentration [5]: 25 mg/L
- 50% Minimal inhibitory concentration [6]: 0.5 mg/L
- 100% Minimal inhibitory concentration [6]: 1 mg/L
- 50% Minimal inhibitory concentration [7]: 5 mg/L
- 100% Minimal inhibitory concentration [7]: 25 mg/L
- growth inhibition of both Gram-positive and Gram-negative bacteria (in words) [8]: active
- growth inhibitory activity toward Gram-negative bacteria ([8]; effect of acetylation of the alpha-amino terminus, versus analogue B): significantly reduced
- % structure calculated from CD spectra, alpha-helix ([9]; 50 mM K-phosphate, pH7): 0%
- % structure calculated from CD spectra, beta-sheet ([9]; 50 mM K-phosphate, pH7): 48%
- % structure calculated from CD spectra, alpha-helix [9, 10]: 61%
- % structure calculated from CD spectra, beta-sheet [9, 10]: 14%

Substance: GIGKFLHAAKKFAKAFVAEIMNS-NH2 [analogue B]
- 50% Minimal inhibitory concentration [1]: 1.2 mg/L
- 100% Minimal inhibitory concentration [1]: 2.5 mg/L
- 50% Minimal inhibitory concentration [2]: 5 mg/L
- 100% Minimal inhibitory concentration [2]: 10 mg/L
- 50% Minimal inhibitory concentration [3]: 15 mg/L
- 100% Minimal inhibitory concentration [3]: 25 mg/L
- 50% Minimal inhibitory concentration [4]: 5 mg/L
- 100% Minimal inhibitory concentration [4]: 10 mg/L
- 50% Minimal inhibitory concentration [5]: 5 mg/L
- 100% Minimal inhibitory concentration [5]: 10 mg/L
- 50% Minimal inhibitory concentration [6]: 0.25 mg/L
- 100% Minimal inhibitory concentration [6]: 1 mg/L
- 50% Minimal inhibitory concentration [7]: 5 mg/L
- 100% Minimal inhibitory concentration [7]: 10 mg/L
- growth inhibition of both Gram-positive and Gram-negative bacteria (in words) [8]: active
- % structure calculated from CD spectra, alpha-helix ([9]; 50 mM K-phosphate, pH7): 2%
- % structure calculated from CD spectra, beta-sheet ([9]; 50 mM K-phosphate, pH7): 44%
- % structure calculated from CD spectra, alpha-helix [9, 10]: 61%
- % structure calculated from CD spectra, beta-sheet [9, 10]: 9%

Substance: GIGKFLHSAGKFGKAFVGEIMKS [Magainin 1, reference compound]
- 50% Minimal inhibitory concentration [1]: 100 mg/L
- 100% Minimal inhibitory concentration [1]: 250 mg/L
- 50% Minimal inhibitory concentration [2]: 100 mg/L
- 100% Minimal inhibitory concentration [2]: 250 mg/L
- 50% Minimal inhibitory concentration [3]: 430 mg/L
- 100% Minimal inhibitory concentration [3]: > 500 mg/L
- 50% Minimal inhibitory concentration [4]: 360 mg/L
- 100% Minimal inhibitory concentration [4]: > 500 mg/L
- 50% Minimal inhibitory concentration [5]: 500 mg/L
- 100% Minimal inhibitory concentration [5]: > 500 mg/L
- 50% Minimal inhibitory concentration [6]: 60 mg/L
- 100% Minimal inhibitory concentration [6]: 75 mg/L
- 50% Minimal inhibitory concentration [7]: 360 mg/L
- 100% Minimal inhibitory concentration [7]: > 500 mg/L
- % structure calculated from CD spectra, alpha-helix ([9]; 50 mM K-phosphate, pH7): 0%
- % structure calculated from CD spectra, beta-sheet ([9]; 50 mM K-phosphate, pH7): 44%
- % structure calculated from CD spectra, alpha-helix [9, 10]: 24%
- % structure calculated from CD spectra, beta-sheet [9, 10]: 37%

Substance: GIGKFLHSAKKFAKAFVAEIMNS-NH2 [analogue F]
- 50% Minimal inhibitory concentration [1]: 1.2 mg/L
- 100% Minimal inhibitory concentration [1]: 5 mg/L
- 50% Minimal inhibitory concentration [2]: 5 mg/L
- 100% Minimal inhibitory concentration [2]: 25 mg/L
- 50% Minimal inhibitory concentration [3]: 25 mg/L
- 100% Minimal inhibitory concentration [3]: 50 mg/L
- 50% Minimal inhibitory concentration [4]: 10 mg/L
- 100% Minimal inhibitory concentration [4]: 25 mg/L
- 50% Minimal inhibitory concentration [5]: 5 mg/L
- 100% Minimal inhibitory concentration [5]: 10 mg/L
- 50% Minimal inhibitory concentration [6]: 0.25 mg/L
- 100% Minimal inhibitory concentration [6]: 1 mg/L
- 50% Minimal inhibitory concentration [7]: 10 mg/L
- 100% Minimal inhibitory concentration [7]: 25 mg/L
- growth inhibition of both Gram-positive and Gram-negative bacteria (in words) [8]: active
- antimicrobial activity ([8]; effect of omission of replacement at Ser8): only slightly
- % structure calculated from CD spectra, alpha-helix ([9]; 50 mM K-phosphate, pH7): 1%
- % structure calculated from CD spectra, beta-sheet ([9]; 50 mM K-phosphate, pH7): 46%
- % structure calculated from CD spectra, alpha-helix [9, 10]: 63%
- % structure calculated from CD spectra, beta-sheet [9, 10]: 6%
- hemolytic activity (in words, comparative) (human erythrocyte): lower hemolytic activity
